Where two headings read alike, the source gives them in different places.
What was measured:
[1] = test system: human vascular smooth muscle cells (internal mammary artery); experiment: 35S-sulfate incorporation into total secreted proteoglycans (CPC precipitation); assay type: cell-based; conditions: for inhibition of PDGF-stimulated component of proteoglycan production: imatinib 1 μM, genistein 100 μM
Method: The Human Ethics Committee of the Alfred Hospital and Baker Heart Research Institute approved the acquisition of tissue.
Cells were metabolically labeled with [^35S]-sulfate ([…]) for the final 24 h.
(§1) The culture media were collected and each plate rinsed with Dulbecco's PBS (0.25 ml). Aliquots (50 μl) of the media sample were spotted in duplicate on 30×15 mm rectangles of Whatman® 3M chromatography paper (Aldrich, Milwaukee, U.S.A.). The paper was washed five times in a solution containing cetylpyridinium chloride (CPC, 1% w/v) and NaCl (50 mM). Following air drying at room temperature, the paper from each sample was placed in liquid scintillation fluid (Packard, Groningen, The Netherlands) and radioactivity counted in a Beckman Coulter liquid scintillation analyzer (Fullerton, U.S.A). Counts from cells labeled with [^35S]-sulfate and Tran^35SLabel represented total sulfated GAGs and total core protein respectively.

[2] = test system: human vascular smooth muscle cells; experiment: Size of proteoglycans and cleaved GAG chains by SDS-PAGE; assay type: cell-based; conditions: for effect on elongation of GAG chains stimulated by PDGF: PDGF treated cells; for effect on size of GAG chains released from proteoglycans, basal: basal (untreated cells); for effect on proteoglycan size (SDS-PAGE): basal and PDGF treated cells, imatinib 1 μM, genistein/daidzein 100 μM
Method: DEAE-Sephacel columns were prepared as previously described 19 and were washed with low salt buffer containing 8 M urea, 0.25 M NaCl, 0.02 M disodium EDTA and 0.5% Triton X-100. The media of 3 identical treatments was pooled and applied to the column. The columns were washed with low salt buffer to remove non-proteoglycan associated radioactivity. Fractions were collected with high salt buffer containing 8 M urea, 3 M NaCl, 0.02 M disodium EDTA and 0.5% Triton X-100.
Samples were prepared for SDS-PAGE by set counts so that the amount of radioactivity applied to the gel was the same for each treatment.
Proteoglycans eluted from DEAE columns and precipitated once with ethanol/potassium acetate solution were treated with sodium borohydride (1 M) in NaOH (50 mM) for 4 h at 45° C. to release the GAG chains. The free GAG chains were precipitated with the ethanol/potassium acetate solution and analyzed for size by SDS-PAGE.
For the estimation of apparent relative masses (MrS) ^14C high molecular weight standards (GIBCO BRL, Grand Island, U.S.A) were run in separate lanes.
The labeled proteoglycans, cleaved chains, xyloside-initiated GAGs and standard proteins were exposed (3 days) to a Fujifilm imaging plate (Fuji Photo Film Co., Japan) and the imaging plate scanned by the Bio-imaging analyzer BAS-1000 MacBas (Fuji Photo Film Co., Japan).

[3] = test system: human vascular smooth muscle cells; experiment: Xyloside-initiated GAG chain synthesis and size; assay type: cell-based; conditions: xyloside 0.5 mM; for effect on increase in size of GAG chains on xyloside, PDGF: PDGF treated cells
Method: To study glycosaminoglycan (GAG) synthesis, cells were treated with exogenous xyloside which acts as an artificial and alternative substrate for the enzymes which normally catalyze the initiation of GAG chains on the protein core Nigro J et al (2002)) and Moses, J., Oldberg, A. & Fransson, L. A. Initiation of galactosaminoglycan biosynthesis. Separate galactosylation and dephosphorylation pathways for phosphoxylosylated decorin protein and exogenous xyloside. Eur J Biochem 260, 879-84 (1999)) generating free xyloside-initiated GAG chains. β-D-Xylopyranoside (xyloside) (0.5 mM) was prepared in DMEM with FBS (0.1%) and DMSO (0.1%). […] Cells were metabolically labeled with [^35S]-sulfate (50 μCi/well) for 24 hours.
SDS-PAGE gels were prepared following the procedure of Laemelli (Laemmli, U.K. Cleavage of structural proteins during the assembly of the head of bacteriophage T4. Nature 227, 680-5 (1970)) on 4-13% linear gradient separating gels for intact proteoglycans and 4-20% separating gels for cleaved chains and xyloside-initiated GAGs, with a 3.5% stacking gel. For the estimation of apparent relative masses (MrS) ^14C high molecular weight standards (GIBCO BRL, Grand Island, U.S.A) were run in separate lanes.
Cell cultures supplemented with xyloside synthesize the normal family of proteoglycans but also free GAG chains which are synthesized on the xyloside acting as a “false acceptor” for GAG initiation. […] The analysis of the production of the xyloside-initiated GAG chains therefore represents an independent assay of the activity of the GAG elongation process which normally determine the length of GAGs on proteoglycans. […]. GAG chains produced on xyloside are considerably smaller than free GAG chains synthesized on and released from proteoglycans (compare FIG. 2 right panel with FIG. 3 lower panel). The band at the bottom of the SDS-PAGE is the GAG chains initiated on xyloside. Genistein and daidzein have no effect on the size of the GAGs either under basal or PDGF stimulated conditions. […].

[4] = test system: human vascular smooth muscle cells; experiment: Proteoglycan core protein synthesis (35S-methionine/cysteine, CPC precipitation); assay type: cell-based
Method: as §1
Effects on core protein biosynthesis can be evaluated by metabolically labeling the cells with labeled amino acids (^35S-methionine/cysteine) and using an isolation technique “CPC precipitation” which is specific for isolating proteoglycans. Thus, cells were treated identically to the above experiments but labeled with ^35S-methionine/cysteine. […]. Core protein biosynthesis was stimulated by PDGF (FIG. 5; […].

[5] = molecular target: cAbl kinase (Homo sapiens, UniProt P00519); experiment: Direct assay of cAbl kinase activity; assay type: biochemical
Chain of cAbl kinase (P00519 whole entry): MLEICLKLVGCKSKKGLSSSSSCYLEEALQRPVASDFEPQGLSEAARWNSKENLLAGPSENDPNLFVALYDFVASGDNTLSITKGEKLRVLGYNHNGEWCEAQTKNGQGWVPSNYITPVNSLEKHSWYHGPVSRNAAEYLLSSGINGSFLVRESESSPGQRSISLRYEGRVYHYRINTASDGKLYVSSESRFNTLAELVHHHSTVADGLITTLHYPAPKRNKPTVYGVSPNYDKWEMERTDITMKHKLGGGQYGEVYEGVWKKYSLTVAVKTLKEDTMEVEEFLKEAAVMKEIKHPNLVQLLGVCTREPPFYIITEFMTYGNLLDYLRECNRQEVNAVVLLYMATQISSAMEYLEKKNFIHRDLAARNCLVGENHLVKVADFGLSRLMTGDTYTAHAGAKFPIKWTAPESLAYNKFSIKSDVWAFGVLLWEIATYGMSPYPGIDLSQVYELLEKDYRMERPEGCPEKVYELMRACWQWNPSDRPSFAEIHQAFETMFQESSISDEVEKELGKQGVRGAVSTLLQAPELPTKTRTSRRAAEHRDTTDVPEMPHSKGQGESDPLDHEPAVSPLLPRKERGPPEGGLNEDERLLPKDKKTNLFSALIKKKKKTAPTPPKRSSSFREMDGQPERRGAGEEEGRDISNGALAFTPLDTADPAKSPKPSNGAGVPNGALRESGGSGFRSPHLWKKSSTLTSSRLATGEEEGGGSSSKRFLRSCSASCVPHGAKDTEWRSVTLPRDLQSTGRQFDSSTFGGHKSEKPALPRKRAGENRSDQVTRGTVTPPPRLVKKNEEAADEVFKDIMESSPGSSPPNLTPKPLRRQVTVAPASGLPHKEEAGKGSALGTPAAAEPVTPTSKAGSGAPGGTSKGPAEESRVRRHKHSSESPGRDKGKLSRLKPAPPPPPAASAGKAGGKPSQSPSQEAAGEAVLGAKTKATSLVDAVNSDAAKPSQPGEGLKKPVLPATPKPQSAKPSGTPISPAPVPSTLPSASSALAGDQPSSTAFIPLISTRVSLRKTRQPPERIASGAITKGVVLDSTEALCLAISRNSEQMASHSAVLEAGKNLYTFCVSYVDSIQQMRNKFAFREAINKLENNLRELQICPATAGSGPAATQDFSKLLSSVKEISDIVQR
Method: The direct cAbl kinase inhibitory activity of several compounds was evaluated.

[6] = test system: human LDL; experiment: LDL affinity chromatography of radiolabeled proteoglycans; assay type: cell-based; conditions: for effect on increased LDL binding of proteoglycans from PDGF treated cells: PDGF 50 ng/ml, imatinib 1 μM, genistein 100 μM
Method: Human blood samples were obtained from healthy subjects. LDL (d=1.019−1.063 g/ml) was purified from blood by sequential density gradient ultracentrifugation as described by Heinecke, J. W., Baker, L., Rosen, H. & Chait, A. Superoxide-mediated modification of low density lipoprotein by arterial smooth muscle cells. J Clin Invest 77, 757-61 (1986). The interaction of total pooled intact proteoglycan preparations with native human LDL was assessed using LDL affinity chromatography, providing a measure of binding capacity. […] Sepharose was prepared in the presence of excess heparin to protect the GAG binding sites. The columns were washed with HEPES buffer above and then with 1M NaCl to remove heparin. Each sample (80,000 cpm) was applied to a separate column. The columns were washed extensively with low salt buffer then eluted (5×0.5 ml) with 1M NaCl to elute bound proteoglycans. Finally the columns were stripped with high salt, high urea buffer. The aggregate radioactivity retained by the LDL column after extensive washing and eluted with 1M NaCl was determined as the binding capacity for the column.
We observed a 36% increase in the binding capacity of proteoglycans in PDGF treated cells compared to untreated cells (FIG. 5).

[7] = test system: K562 cells; experiment: Inhibition of K562 cell proliferation; assay type: cell-based
Source text: K562 cells are Philadelphia chromosome tumour cells in which constitutively active cAbl (but possibly other pathways) drive the cell proliferation. […] These cells provide an assay to discriminate inhibition of tyrosine kinases in a whole cell assay.

[8] = test system: vascular smooth muscle cells; conditions: cited from earlier work
[9] = test system: saphenous vein vascular smooth muscle cells; conditions: saphenous vein VSMC
Method: Cultures of vascular smooth muscle cells from human saphenous veins samples obtained (with Ethics approval) from Cardiac Theatres at the Alfred Hospital were prepared.

[10] = test system: human LDL; experiment: Gel Mobility Shift Assay of core protein labelled proteoglycans binding to human LDL
Method: A new approach to these studies is now used in which the proteoglycan core proteins are metabolically radio-labelled and used to study the binding of human LDL. Cells are incubated with Translabel® (ICN Biochemicals) (^35S-methioinine and cysteine amino acids) and the amino acids are incorporated into the core proteins.
Core protein labelled proteoglycans were isolated by DEAE sepharose ion exchange chromatography and then the binding to human LDL was studied in a Gel Mobility Shift Assay in which a set amount of radiolabeled proteoglycan is incubated with various amounts of LDL and then the bound and free proteoglycans are separated on a flat bed agarose gel.

[11] = test system: vascular smooth muscle cells; experiment: Sepharose 6B size exclusion chromatography of cleaved GAG chains; assay type: cell-based, human
[12] = test system: vascular smooth muscle cells; experiment: 35S-sulphate incorporation into proteoglycans, cAbl siRNA transfection compared with imatinib; assay type: cell-based, human; conditions: culture media
Source text: An independent method is available to examine this question by using molecular biology techniques to block the expression of the mRNA for cAbl and thus reduce the actual level of cAbl mRNA, protein and enzyme activity in the cell. A new technique of post-transcriptional gene silencing known as small inhibitory RNA (or siRNA) has recently been developed in which cells are transfected with an siRNA which leads to the breakdown and loss of the target mRNA in this case cAbl RNA. This is a highly specific technique which complements the pharmacological approach. […] Target sequences for siRNA have been identified from the scanning of the coding region of the human c-Abl gene. Four of these potential sites were selected and compared to a genome database to identify any sequence homology to other genes. Following identification of target sequences, sense and anti-sense siRNA oligonucleotide templates are constructed consisting of 21 nucleotides encoding the siRNA and 8 nucleotides complementary to a promoter primer. […] Both sense and anti-sense siRNA oligonucleotide templates were hybridised to a promoter primer. Double stranded siRNA transcription templates was created by extending the hybridised oligonucleotides using the Klenow fragment of DNA polymerase and RNA polymerase used to transcribe the sense and anti-sense siRNA templates which were then hybridised to dsRNA. […]

[13] = Homo sapiens, 24 h, read-out: inhibition of basal proteoglycan production

Molecule | effect on elongation of GAG chains stimulated by PDGF [2] | effect on size of GAG chains released from proteoglycans, basal [2] | effect on proteoglycan size (SDS-PAGE) [2] | effect on combined production of proteoglycans and xyloside-initiated GAG chains [3] | effect on increase in size of GAG chains on xyloside, PDGF [3] | effect on size of GAG chains on xyloside, basal [3] | effect on PDGF-stimulated core protein biosynthesis [4] | effect on basal proteoglycan core protein biosynthesis [4] | inhibition of cAbl kinase activity [5] | inhibition of PDGF-stimulated component of proteoglycan production ([1]; PDGF 50 ng/ml) | effect on increased LDL binding of proteoglycans from PDGF treated cells [6] | also measured
O=c1c(-c2ccc(O)cc2)coc2cc(O)ccc12 [daidzein, 4′,7-dihydroxyisoflavone] | no effect | no effect | no effect | essentially identical | no effect | no effect | attenuated | considerably less active than genistein | little activity |  |  | inhibition of basal proteoglycan production ([1]; basal, daidzein 100 μM): little inhibitory activity
O=c1c(-c2ccc(O)cc2)coc2cc(O)cc(O)c12 [genistein, 4′,5,7-trihydroxyisoflavone] | no effect | no effect | no effect | essentially identical | no effect | no effect | attenuated | reduced | little activity | less inhibitory than imatinib | does not prevent | inhibition at 100 µM [1, 13]: 64%; concentration of maximal effect on proteoglycan production ([1]; dose response curves): 100 µM; potency against cAbl relative to imatinib (times less potent) [5]: 160 times; inhibition of K562 cell proliferation [7]: little or no inhibitory activity; effect on total proteoglycan production ([8]; Primate VSMC in culture): inhibited; effect on basal expression of versican mRNA and core protein ([8]; basal): almost completely abolishes; effect on GAG length [8]: no effect
CO[C@H]1[C@@H](OC)C[C@H](C)[C@@H](OC)C2=CC(=O)C=C(NC(=O)/C(C)=C/C=C\[C@H](OC)[C@@H](OC(N)=O)/C(C)=C/[C@@H]1C)C2=O [herbimycin] |  |  |  |  |  |  |  |  | little activity |  |  | effect on radiosulfate incorporation into proteoglycans ([1]; herbimycin): does not inhibit; effect on size of GAGs on proteoglycan (SDS-PAGE) ([2]; herbimycin): does not reduce; inhibition of cAbl kinase activity ([5]; listed as Herbimycin): no inhibitory activity
Cc1ccc(NC(=O)c2ccc(CN3CCN(C)CC3)cc2)cc1Nc1nccc(-c2cccnc2)n1 [imatinib, 4-[(4-methyl-1-piperazinyl)methyl]-N-[4-methyl-3-[[4-(3-pyridinyl)-2-pyrimidinyl]amino-phenyl]benzamide methanesulfonate] |  |  |  | essentially identical | completely prevented | slightly reduced | attenuated | very small but not statistically significant inhibitory effect |  | totally blocked | completely abolished | inhibition at 1 µM [1, 13]: 56%; effect on GAG length (SDS-PAGE mobility) [9]: shortens; decrease in LDL binding affinity ([10]; basal): three fold
PDGF: human recombinant platelet derived growth factor-BB, growth factor stimulus |  |  |  |  |  |  |  |  |  |  |  | increase of proteoglycan production ([1]; PDGF 50 ng/ml): approximately two-fold; increase in LDL binding capacity of proteoglycans ([6]; PDGF treated cells compared to untreated cells): 36%; Kav of cleaved GAG chains, PDGF stimulated [11]: 0.45; half-maximal saturation concentration of LDL, PDGF stimulated cells ([10]; PDGF stimulated): 25 µg/mL
siRNA (MB 61): siRNA directed to cAbl; anti-sense template 5′-AAGAAAAACTTCATCCACAGA-3′, sense template 5′-AATCTGTGGATGAAGTTTTTC-3′ (antisense AAGAAAAACTTCATCCACAGA; sense AATCTGTGGATGAAGTTTTTC; chemistry not given here; the letters are possibly those of the target site) |  |  |  |  |  |  |  |  |  |  |  | reduction in 35S-sulphate incorporation, PDGF cells ([12]; PDGF stimulated): 50%; inhibition of radiosulphate incorporation, control cells ([12]; control cells, 24 h): 30-40%

Reference: patent US20060116403A1, “Therapeutic target and uses thereof” (priority 2002, published 2006)
